± gives the standard deviation of the averaged measurements.
Legend:
Conditions in all cases: 72 h
Caco-2 [1] = experiment: cell viability relative to DMSO; higher = less toxic
Calu-3 [2] = experiment: as above
HepG2 [3] = experiment: as above
U2OS [4] = experiment: as above
Vero E6 [5] = experiment: as above
Caco-2 [6] = experiment: relative viability EC50 (midpoint between 100% and the lowest measured viability); higher = less toxic
Calu-3 [7] = experiment: as above
HepG2 [8] = experiment: as above
U2OS [9] = experiment: as above
Vero E6 [10] = experiment: as above
Caco-2 [11] = experiment: drug sensitivity score (DSS) for viability; higher = more toxic; extreme values may be limits of the assay
Calu-3 [12] = experiment: as above
HepG2 [13] = experiment: as above
U2OS [14] = experiment: as above
Vero E6 [15] = experiment: as above

Row | Compound | cell viability (Caco-2 [1]; 1 nM) | cell viability (Caco-2 [1]; 10 nM) | cell viability (Caco-2 [1]; 100 nM) | cell viability (Caco-2 [1]; 1000 nM) | cell viability (Caco-2 [1]; 10000 nM) | cell viability (Calu-3 [2]; 1 nM) | cell viability (Calu-3 [2]; 10 nM) | cell viability (Calu-3 [2]; 100 nM) | cell viability (Calu-3 [2]; 1000 nM) | cell viability (Calu-3 [2]; 10000 nM) | cell viability (HepG2 [3]; 1 nM) | cell viability (HepG2 [3]; 10 nM) | cell viability (HepG2 [3]; 100 nM) | cell viability (HepG2 [3]; 1000 nM) | cell viability (HepG2 [3]; 10000 nM) | cell viability (U2OS [4]; 1 nM) | cell viability (U2OS [4]; 10 nM) | cell viability (U2OS [4]; 100 nM) | cell viability (U2OS [4]; 1000 nM) | cell viability (U2OS [4]; 10000 nM) | cell viability (Vero E6 [5]; 1 nM) | cell viability (Vero E6 [5]; 10 nM) | cell viability (Vero E6 [5]; 100 nM) | cell viability (Vero E6 [5]; 1000 nM) | cell viability (Vero E6 [5]; 10000 nM) | relative viability EC50 (Caco-2 [6]) | relative viability EC50 (Calu-3 [7]) | relative viability EC50 (HepG2 [8]) | relative viability EC50 (U2OS [9]) | relative viability EC50 (Vero E6 [10]) | drug sensitivity score (Caco-2 [11]) | drug sensitivity score (Calu-3 [12]) | drug sensitivity score (HepG2 [13]) | drug sensitivity score (U2OS [14]) | drug sensitivity score (Vero E6 [15])
1 | Cc1cc(OCC(=O)O)cc(C)c1Cc1ccc(O)c(C(C)C)c1 [sobetirome] | 102% | 95.7% | 92.1% | 94.7% | 90.5% | 102% | 96.6% | 105% | 98.7% | 101% | 100% | 103% | 96% | 96.2% | 85% | 97.5% | 99.9% | 99.5% | 99.5% | 100% | 102% | 99.3% | 87.9% | 96.4% | 85.3% | > 10 µM | > 10 µM | > 10 µM | > 10 µM | > 10 µM | 0 | 0 | 0.4 | 0 | 0.3
2 | CC(C)C(=O)OC[C@@]1(N=[N+]=[N-])O[C@@H](n2ccc(N)nc2=O)[C@H](OC(=O)C(C)C)[C@@H]1OC(=O)C(C)C [balapiravir] | 103% | 87% | 100% | 98.7% | 88.9% | 99% | 99.1% | 97% | 100% | 102% | 95.6% | 102% | 92.6% | 102% | 92.4% | 99.6% | 94.9% | 96% | 95.5% | 94.6% | 98.6% | 92.8% | 93.4% | 98.4% | 90.7% | > 10 µM | > 10 µM | > 10 µM | > 10 µM | > 10 µM | 0 | 0 | 0 | 0 | 0
3 | CC(=O)NCC(=O)N[C@H](CCC(=O)O)C(=O)O [N-acetylglycyl-D-glutamic-acid] | 91.3% | 104% | 93% | 103% | 101% | 94.5% | 106% | 98% | 93% | 95.7% | 110% | 95.7% | 98.6% | 102% | 100% | 102% | 102% | 97.7% | 102% | 99.4% | 109% | 99.9% | 103% | 97% | 99.6% | > 10 µM | > 10 µM | > 10 µM | > 10 µM | > 10 µM | 0 | 0 | 0 | 0 | 0
4 | Cc1c(-c2ccnn2C)cc(C(=O)NCc2ccc(S(C)(=O)=O)cn2)c(=O)n1-c1cccc(C(F)(F)F)c1 [AZD9668] | 93.9% | 101% | 106% | 96.9% | 101% | 94.5% | 103% | 99.9% | 92.9% | 97.1% | 101% | 102% | 98% | 108% | 103% | 97% | 93.6% | 102% | 95.7% | 102% | 97.3% | 102% | 89.7% | 92.2% | 107% | > 10 µM | > 10 µM | > 10 µM | > 10 µM | > 10 µM | 0 | 0 | 0 | 0 | 0
5 | CCN[C@@H](C)Cc1cccc(C(F)(F)F)c1 [dexfenfluramine] | 105% | 114% | 89.8% | 108% | 106% | 97.4% | 109% | 105% | 118% | 113% | 106% | 93.7% | 105% | 82.9% | 97.5% | 93.5% | 96.7% | 96.1% | 94.3% | 101% | 99.4% | 92.7% | 100% | 90.7% | 94.7% | > 10 µM | > 10 µM | > 10 µM | > 10 µM | > 10 µM | 0 | 0 | 0 | 0 | 0
6 | CC(=O)Nc1ccc(O)cc1 [paracetamol] | 91.7% | 103% | 94.7% | 98.2% | 98.8% | 94.7% | 96.6% | 97.2% | 99.8% | 99% | 99.5% | 104% | 88.8% | 94.3% | 92.5% | 99.9% | 101% | 95.4% | 102% | 93.7% | 97.9% | 95.4% | 102% | 92.5% | 102% | > 10 µM | > 10 µM | > 10 µM | > 10 µM | > 10 µM | 0 | 0 | 0.6 | 0 | 0
7 | CC(=O)[C@H]1CC[C@H]2[C@@H]3CC[C@H]4C[C@H](O)CC[C@]4(C)[C@H]3CC[C@]12C [allopregnanolone] | 98 ± 0.85% | 96.6 ± 1.1% | 96.2 ± 8.3% | 100 ± 3% | 103 ± 7.4% | 104 ± 5.9% | 102 ± 5.4% | 95.05 ± 0.64% | 104 ± 5.8% | 103 ± 3.8% | 98.9 ± 6.8% | 92.4 ± 6.1% | 97.6 ± 7.2% | 99 ± 2.6% | 92 ± 3.5% | 98.8 ± 4.2% | 99.65 ± 0.92% | 98.55 ± 0.35% | 100 ± 5% | 97.7 ± 0.28% | 95.5 ± 3.5% | 101 ± 4.5% | 95 ± 3.5% | 97.9 ± 4.7% | 98.8 ± 4.5% | > 10 µM | > 10 µM | > 10 µM | > 10 µM | > 10 µM | 0 | 0 | 0 | 0 | 0
8 | NC1=NC(=O)N([C@H]2C[C@H](O)[C@@H](CO)O2)CN1 [KP-1212] | 89.9% | 104% | 89% | 103% | 99.8% | 93.3% | 90.5% | 94.3% | 98.9% | 98.8% | 99.1% | 95% | 100% | 98.3% | 93.9% | 92.6% | 102% | 95.5% | 99.7% | 103% | 99.8% | 98.7% | 97.9% | 92.1% | 105% | > 10 µM | > 10 µM | > 10 µM | > 10 µM | > 10 µM | 0 | 0 | 0 | 0 | 0
9 | CN1CC(=O)NC1=N [creatinine] | 95.8% | 96.6% | 96.9% | 102% | 99.1% | 97.2% | 99.7% | 85% | 95.7% | 87.5% | 97.4% | 97.3% | 104% | 90.9% | 103% | 100% | 99.5% | 97.3% | 98.4% | 95.5% | 100% | 97% | 93.9% | 96.1% | 98.7% | > 10 µM | > 10 µM | > 10 µM | > 10 µM | > 10 µM | 0 | 0.2 | 0 | 0 | 0
10 | COc1ccc2cc(C(C)C(=O)Oc3ccc(C(N)=S)cc3)ccc2c1 (stereo not given) [ATB-346] | 90% | 102% | 93.7% | 89.6% | 98.6% | 100% | 102% | 98.8% | 102% | 101% | 98.2% | 88.4% | 97.2% | 98.7% | 97.7% | 99.7% | 100% | 99.1% | 99.9% | 96.9% | 100% | 94.3% | 95.7% | 94.4% | 97.6% | > 10 µM | > 10 µM | > 10 µM | > 10 µM | > 10 µM | 0 | 0 | 0 | 0 | 0
11 | CCN(CC)CCCCC1CCN(CC(=O)N2c3ccccc3C(=O)Nc3cccnc32)CC1 [AQ-RA741] | 101% | 90.9% | 98.2% | 86.4% | 97.1% | 105% | 94.7% | 108% | 109% | 96.4% | 100% | 102% | 102% | 101% | 90.1% | 97.1% | 96.3% | 105% | 98.6% | 104% | 102% | 106% | 96.7% | 97.8% | 95.9% | > 10 µM | > 10 µM | > 10 µM | > 10 µM | > 10 µM | 0 | 0 | 0 | 0 | 0
12 | O=C1c2ccccc2C(=O)C1c1ccc(Cl)cc1 [chlorindione] | 94.5% | 84.3% | 104% | 95.2% | 106% | 103% | 103% | 99.5% | 106% | 99.7% | 96.8% | 108% | 106% | 111% | 122% | 99.5% | 93.8% | 105% | 97.4% | 95.4% | 95.1% | 95.2% | 90.3% | 93.6% | 108% | > 10 µM | > 10 µM | > 10 µM | > 10 µM | > 10 µM | 0 | 0 | 0 | 0 | 0
13 | COC(=O)C1=C(C)N(C)C(C)=C(C(=O)OC)C1c1ccc(C(F)(F)F)cc1 [BAY-W-9798] | 91.8% | 99.4% | 98.9% | 97.1% | 95.4% | 95.1% | 103% | 93.4% | 98.1% | 100% | 96.7% | 93.3% | 106% | 96.3% | 101% | 96.9% | 102% | 96.4% | 102% | 103% | 93.7% | 92.5% | 94.2% | 96.3% | 107% | > 10 µM | > 10 µM | > 10 µM | > 10 µM | > 10 µM | 0 | 0 | 0 | 0 | 0
14 | CC1(C)Oc2ccc(C#N)cc2[C@@H](OC2=CC(=O)CC2)[C@@H]1O [PCO-400] | 113% | 90.5% | 99.6% | 92.8% | 103% | 96.6% | 95.9% | 110% | 102% | 103% | 101% | 97% | 109% | 105% | 86.9% | 107% | 95.8% | 98.8% | 90.6% | 99.8% | 102% | 97.3% | 97.7% | 102% | 94.6% | > 10 µM | > 10 µM | > 10 µM | > 10 µM | > 10 µM | 0 | 0 | 0 | 0 | 0
15 | O=C(O)C[C@H](O)C(=O)O [malic-acid] | 93% | 91.8% | 99% | 91% | 99.8% | 102% | 108% | 92.3% | 95.2% | 95.2% | 101% | 95% | 94.6% | 95.2% | 95% | 105% | 101% | 103% | 97.6% | 101% | 98.1% | 107% | 96.5% | 100% | 95.5% | > 10 µM | > 10 µM | > 10 µM | > 10 µM | > 10 µM | 0 | 0 | 0 | 0 | 0
